Consider one compound from patent US12194024B2, “Pharmaceutical composition of MDM2 inhibitor and use thereof for preventing and/or treating disease” (ASCENTAGE PHARMA (SUZHOU) CO., LTD., priority 2019, dated 2025).

One assay relates to A549. Description: CTG cell proliferation experiment, NSCLC. In kind it is cell-based. Conditions: Homo sapiens; A549, STK11 and KRAS co-mutated; 72 hours. As to the method: (§1) For the combined experiment, the final volume of 2 test substances is 5 μl/well.
(§2) The nonlinear regression data analysis method of Graphpad Prism 6.0 software ([…]) is used for calculating IC50.
(§3) For the combined experiment, the average fluorescence value of the 3 repeated wells of the single drug control is normalized for calculating cell survival rate.

Another assay deals with NCI-H2122. Description: CTG cell proliferation experiment, NSCLC. The class given is cell-based. Conditions: Homo sapiens; NCI-H2122, STK11 and KRAS co-mutated; 72 hours. The protocol:
as §1, §2, §3

The next assay relates to NCI-H460. Put plainly: CTG cell proliferation experiment, NSCLC. The class given is cell-based. To be noted: Homo sapiens; NCI-H460, STK11 and KRAS co-mutated; 72 hours. As to the method: as §1, §2, §3
In assay [1] the test system is human OCI-AML-3 AML xenograft tumor. Description: Subcutaneous OCI-AML-3 AML mouse xenograft tumor model. In kind it is in vivo, NOD SCID mice. Conditions: Compound 2 50 mg/kg orally q2d, Azacitidine 2 mg/kg i.v., Decitabine 1 mg/kg i.v. The protocol:
For subcutaneous model, OCI-AML-3 cells (1×10^6) are injected subcutaneously into the right side of the abdomen of 6- to 8-week-old mice. About 10 days after the cell inoculation, the mice are randomly divided into groups based on the primary tumor size achieving about 100-150 mm^3 of average tumor volume.
(§4) The tumor diameter is measured twice using a vernier caliper each week. The computational formula of the tumor volume (TV) is: TV=a×b^2/2. In the computational formula, a and b represent the length and width of the tumor measurement respectively. The computational formula of the relative tumor volume (RTV) is: RTV=VtN1. In the computational formula, V1 is the tumor volume when being grouped and administered, and Vt is the tumor volume when being measured at a certain day after the administration.
The tumor remission rate (%) is derived by dividing the number of SD (Stable Disease), PR (Partial response) and CR (Complete response) appearing in the tumor bearing mice after treatment by the total number of mice in the group×100%.
The synergistic analysis uses the following formula (reference can be made to Gould S E et al., Translational value of mouse models in oncology drug development, Nature medicine, 2015 21, 431-439): synergistic factor=((A/C)×(B/C))/(AB/C); A=RTV value of the A drug alone group; B=RTV value of the B drug alone group; C=RTV value of the vehicle control group, AB=RTV value of the AB combined group (Clarke R., Issues in experimental design and endpoint analysis in the study of experimental cytotoxic agents in vivo in breast cancer and other models[J], Breast Cancer Research & Treatment, 1997, 46 (2-3):255-278).
For subcutaneous model, OCI-AML-3 cells (1×10^6) are injected subcutaneously into the right side of the abdomen of 6- to 8-week-old mice. About 10 days after the cell inoculation, the mice are randomly divided into groups based on the primary tumor size achieving about 100-150 mm^3 of average tumor volume. Compound 2 is administered alone or in combination (50 mg/kg, is taken orally, every other day for 15 days) and Aza (2 mg/kg, intravenous injection each day for 7 days) or Dec (1 mg/kg, intravenous injection each day for 7 days). The tumor volume is measured twice using a vernier caliper each week and is represented by following formula in mm^3: V=0.5a×b^2; in the formula, a and b are the long diameter and short diameter of the tumor respectively. […] RTV=VtN1; wherein V1 and Vt are the average tumor volume on the first day (day 1) in the treatment, and the average tumor volume of a certain time point (day t) respectively.
Azacitidine is administered following 2 mg/kg, caudal vein injection, qd×7d, drug withdrawal 7 days, then qd×2 day regimens for seven days (corresponding to the number 68 regimen in table 7).

The test system of the next assay is OCI-AML-3. Description: CellTiter-Glo (CTG) cell proliferation experiment. The class given is cell-based. Conditions: Homo sapiens, TP53 wt, FLT3 wt, 72 hours, read-out: IC50 values, nM (Mean ± SD, n = 2 or 3).
Assay [2] has as its system human A375 cutaneous melanoma xenograft tumor. Description: Subcutaneous A375 cutaneous melanoma xenograft model. The class given is in vivo, BALB/c Nude mice.
From the text: The subcutaneous xenograft tumor model of human tumor immuno-deficient mice is established by the cell inoculation method (reference can be made to Gould S E et al., Translational value of mouse models in oncology drug development, Nature medicine, 2015 21, 431-439, and Souers A J et al., ABT-199, a potent and selective BCL-2 inhibitor, achieves antitumor activity while sparing platelets, Nature medicine, 2012 19.202-208): tumor cells at logarithmic phase are collected, then are resuspended in 1×PBS after being counted, the concentration of the cell suspension is adjusted to 2.5-5×10^7/mL. Tumor cells are subcutaneously inoculated to right-side back of the immuno-deficient mice using a 1 mL syringe (4th needle) at 5-10×10^6/0.2 mL/mouse (experimental animals are purchased from Beijing Vital River Laboratory Animal Technology Co., Ltd. SCXK (Beijing) 2016-0006). All the experimental operations of animals strictly abide by the usage and management standard of experimental animals of GenePharma Co., Ltd. and Suzhou Yasheng Pharmaceutical Co., Ltd. The calculations of related parameters make reference to “Technical guidelines for non-clinical research of cytotoxic anti-tumor drugs” of China CFDA.
as §4
The evaluation index of the anti-tumor activity is the relative tumor proliferation rate T/C (%), and the computational formulae respectively are: the relative tumor proliferation rate T/C (%)=(TRTV/CRTV)×100%, TRTV is the RTV of the treatment groups, and CRTV is the RTV of the vehicle control groups. The tumor remission rate (%) is derived by dividing the number of SD (Stable Disease), PR (Partial response) and CR (Complete response) appearing in the tumor bearing mice after treatment by the total number of mice in the group×100%. […]

Consider `CCN1[C@@H](C(=O)NC23CCC(C(=O)O)(CC2)CC3)[C@H](c2cccc(Cl)c2F)[C@]2(C(=O)Nc3cc(Cl)ccc32)C12CCCCC2` [Compound 2], for which the IC50 in the assay with A549 worked out at 33 nM; in the assay on NCI-H2122 it was 79 nM; with NCI-H460 it was 330 nM; with OCI-AML-3, 316 ± 97 nM. Besides, in assay [1], the “T/C value (%) (d15)” value was determined as 84.8%. In addition, the “Relative tumor volume (RTV, Mean ± SEM)” value in assay [1] (d15, vehicle 16.5 ± 4.1) was 14.0 ± 2.7. For the same compound, in assay [2] (Compound 2 50 mg/kg PO QD × 7D, Trametinib 1 mg/kg, Dabrafenib 30 mg/kg PO QD × 21D), the “T/C (%) @ D18” value came to 58.25%. In assay [2] (Compound 2 50 mg/kg PO QD × 7D, Trametinib 1 mg/kg, Dabrafenib 30 mg/kg PO QD × 21D, vehicle 17.36 ± 1.33), the “RTV @ D18 (Mean ± SEM)” value was 10.11 ± 1.83. In assay [2] (disease control rate, CR, PR or SD by mRECIST), the “DCR (%)” value came out at 0%. Besides, the “ORR (%)” value in assay [2] (objective response rate, CR or PR by mRECIST) turned out to be 0%.
